This is an account of results in BindingDB's records for doi:10.1016/0960-894X(96)00185-0 (1996).

The target of this test is Human immunodeficiency virus type 1 protease (Human immunodeficiency virus 1, UniProt Q72874). Nature of the test: ChEBML_159443. The text has this: In vitro inhibitory activity against HIV-1 protease(PR).

Take `O=c1oc(-c2ccc(O)cc2)cc(O)c1SCc1ccccc1` [3-Benzylsulfanyl-4-hydroxy-6-(4-hydroxy-phenyl)-pyran-2-one]: the IC50 was 690 nM.

`O=c1oc(-c2cccc(Cl)c2)cc(O)c1SCc1ccccc1` [3-Benzylsulfanyl-6-(3-chloro-phenyl)-4-hydroxy-pyran-2-one] gave an IC50 of 690 nM.

In general, IC50 refers to the concentration that inhibits the measured activity by half. The low end stands for greater potency, the high end for weaker potency.
